How the values were obtained:
Format in all cases: physicochemical
[1] = Humectancy assay; details: dried at 54° C., then 97% relative humidity at 25° C.; weight after/before x 100
Protocol: The complexes of the interaction assay were used to conduct a humectancy assay. […] After reweighing on an analytical balance, the trays were placed in a climate chamber and stored for at least 2 days at 54° C. or until no further weight change was observed. […] The air tight box was 20 cm×12 cm×7 cm. In the box a chicken wire construct was used to create two levels with 10-20 ml of saturated solution of dipotassium sulfate in a petri dish in a lower level, and the samples in an upper level. Boxes were located into an incubator at 25° C. The boxes were incubated for at least 5 days at 25° C. before use to allow equilibration of temperature and humidity. Hereafter, the trays were reweighed.
The change in humectancy by combining a pesticide and polyelectrolyte is expressed as percent value by multiplying the sample weight after incubation (w2) with 100 divided with the sample weight before incubation (w1) using the following equation: […]
To evaluate the effect of the interaction of the active ingredient and polyelectrolyte on humectancy (synergetic/antagonistic/no effect), the determined Humectancy of the samples containing both active ingredient and polyelectrolyte “Humectancy (blend)” was divided by the theoretical value of Humectancy of the blend provided by respective proportion (% AI; % PE) of each pesticide and polyelectrolyte using the following equation: […]
According to this formula, a positive result of more than 1 is indicative of synergy.
The complexes obtained with the method of WO2010035118, with both ratios of 2:1 and 1:5 (PAA:AI) were tested for humectancy. […] For each sample, the test was carried in triplicate.
For each sample, the test was carried in triplicate.

[2] = Visual interaction of active ingredient with chitosan; set-up: key to Visual observation category, Active ingredient: chitosan: P: Formation of a precipitate; G: Formation of a gel; C: Formation of a coacervate; V: Increase/decrease of the sediment volume; S: Decrease of solid by increase of solved active ingredient; No visual observable interaction
Protocol: (§1) To determine interaction between polyelectrolytes (PE; Table 1) and active ingredients (AI; Table 2) aqueous stock solutions of about 200 g/L of the PE and of the active ingredients were prepared. The polyelectrolytes were diluted in water and stirred on magnetic stirrer for at least 30 minutes until a homogenous clear solution was obtained (ratios and amounts are presented in Table 4). The active ingredients were dissolved in water on magnetic stirrer or, if they weren't water soluble, suspended in water and milled by adding glass beads (1 mm) in a stainless steel metal beaker until they reach a volume-based average particle size below 20 μm (90% of particles below 20 μm), as determined by laser diffraction. After that the mixture was filtered with a sieve to remove glass beads and the filtrate was used for further analysis.
(§2) A polyelectrolyte solution, PAA or chitosan, was added to a 100-150 mL glass beaker, followed by water and an active ingredient solution/suspension. The mixture was stirred for at least 4 hours, and samples were observed after at least 16 hours. The visual observable interactions were divided into five categories (see Table 3). The categories were chosen by comparison to a blank sample containing the same concentration of active ingredient in water but without polyelectrolyte. […] Interactions were studied over a large range of active ingredient to polyelectrolyte ratios, including 10.000:1 (w/w), 1000:1 (w/w), 100:1 (w/w), 10:1 (w/w), 1:1 (w/w), 1:10 (w/w), 1:100 (w/w) and 1:1000) (w/w).

[3] = Visual interaction with polyanion sodium lignosulfonate; details: visible complex formation
[4] = Visual interaction of active ingredient with polyelectrolyte PAA
Protocol: as §1, §2

[5] = ratio active ingredient:chitosan 1.000:1 (w/w)
[6] = ratio active ingredient:chitosan 1:1 (w/w)
[7] = ratio active ingredient:chitosan 1:10 (w/w)
[8] = ratio active ingredient:chitosan 1:100 (w/w)
[9] = ratio active ingredient:chitosan 2:1 (w/w)
[10] = ratio active ingredient:chitosan 5:1 (w/w)
[11] = ratio active ingredient:chitosan 10.000:1 (w/w)
[12] = ratio active ingredient:chitosan 10:1 (w/w)
[13] = ratio active ingredient:chitosan 100:1 (w/w)
[14] = ratio active ingredient:PAA 1:1 (w/w)
[15] = ratio active ingredient:PAA 1:1000 (w/w)
[16] = ratio active ingredient:PAA 10.000:1 (w/w)
[17] = ratio active ingredient:PAA 1.000:1 (w/w)
[18] = ratio active ingredient:PAA 1:10 (w/w)
[19] = ratio active ingredient:PAA 1:100 (w/w)
[20] = ratio active ingredient:PAA 100:1 (w/w)

Compound	Humectancy [1]	Interaction with the polyanion sodium lignosulfonate [3]	Visual observation category, Active ingredient: PAA [4, 15]	Visual observation category, Active ingredient: PAA [4, 16]	Visual observation category, Active ingredient: PAA [4, 17]	Visual observation category, Active ingredient: PAA [4, 18]	Visual observation category, Active ingredient: PAA [4, 19]	Visual observation category, Active ingredient: PAA [4, 20]	also measured
O=C(O)COc1ccc(Cl)cc1Cl [2,4D, 2-(2,4-dichlorophenoxy)acetic acid]	212.7%	did not form a visible complex	N	N	–	–	–	–	Visual observation category, Active ingredient: chitosan [2, 5]: N; Visual observation category, Active ingredient: chitosan [2, 6]: P; Visual observation category, Active ingredient: chitosan [2, 7]: N; Visual observation category, Active ingredient: chitosan [2, 8]: N; Visual observation category, Active ingredient: chitosan [2, 9]: P; Visual observation category, Active ingredient: chitosan [2, 10]: P; Visual observation category, Active ingredient: chitosan [2, 11]: N; Visual observation category, Active ingredient: chitosan [2, 12]: P; Visual observation category, Active ingredient: chitosan [2, 13]: P; Visual observation category, Active ingredient: PAA [4, 14]: G/P
N.N.O=[PH](O)O [(NH4)2HPO3]	–	did not form a visible complex	–	N	N	N	N	N	–
CNC(=N[N+](=O)[O-])NCc1cnc(Cl)s1 [Clothianidin, 1-[(2-chloro-1,3-thiazol-5-yl)methyl]-3-methyl-2-nitroguanidine]	120.0%	–	N	N	–	N	N	–	–
COc1c(Cl)ccc(Cl)c1C(=O)O [Dicamba, 3,6-dichloro-2-methoxybenzoic acid]	–	did not form a visible complex	–	–	–	N	N	–	Visual observation category, Active ingredient: chitosan [2, 5]: P; Visual observation category, Active ingredient: chitosan [2, 6]: N; Visual observation category, Active ingredient: chitosan [2, 7]: N; Visual observation category, Active ingredient: chitosan [2, 8]: N; Visual observation category, Active ingredient: chitosan [2, 9]: N; Visual observation category, Active ingredient: chitosan [2, 10]: P; Visual observation category, Active ingredient: chitosan [2, 11]: N; Visual observation category, Active ingredient: chitosan [2, 12]: P; Visual observation category, Active ingredient: chitosan [2, 13]: P; Visual observation category, Active ingredient: PAA ([4]; ratio active ingredient:PAA 100.000:1 (w/w)): N
CCO[PH](=O)O [Fosetyl Al]	137.0%	–	N	–	–	N	N	–	Ratios at which active ingredient interacted (w/w; active ingredient:polycation) ([4]; summary of Table 4): from 10.000:1 to 1:1
O=[N+]([O-])/N=C1\NCCN1Cc1ccc(Cl)nc1 [Imidacloprid, (NE)-N-[1-[(6-chloropyridin-3-yl)methyl]imidazolidin-2-ylidene]nitramide]	108.4%	–	–	N	–	N	N	–	Visual observation category, Active ingredient: PAA [4, 14]: N; Visual observation category, Active ingredient: PAA ([4]; ratio active ingredient:PAA 2:1 (w/w)): N; Visual observation category, Active ingredient: PAA ([4]; ratio active ingredient:PAA 5:1 (w/w)): No
O=[PH]([O-])[O-].[K+].[K+] [K2HPO3]	–	did not form a visible complex	–	N	N	N	N	N	–
O=[PH]([O-])[O-].[Na+].[Na+] [Na2HPO3]	–	did not form a visible complex	–	N	N	N	N	N	–
C[C@@H]1C/C=C/C=C/C=C/C=C/[C@H](O[C@@H]2O[C@H](C)[C@@H](O)[C@H](N)[C@@H]2O)C[C@@H]2O[C@](O)(C[C@@H](O)C[C@H]3O[C@@H]3/C=C/C(=O)O1)C[C@H](O)[C@H]2C(=O)O [Natamycin, (1R,3S,5R,7R,8E,12R,14E,16E,18E,20E,22R,24S,25R,26S)-22-[(2R,3S,4S,5S,6R)-4-amino-3,5-dihydroxy-6-methyloxan-2-yl]oxy-1,3,26-trihydroxy-12-methyl-10-oxo-6,11,28-trioxatricyclo[22.3.1.05,7]octacosa-8,14,16,18,20-pentaene-25-carboxylic acid]	–	–	–	–	N	N	N	–	Interaction with chitosan [2]: interact
CCCCCCCCC(=O)O [Pelargonic acid, nonanoic acid]	–	did not form a visible complex	N	N	–	–	N	–	–
O=C(O)[C@@H]1CCCN1 [Proline]	–	–	N	N	N	N	N	N	Visual observation category, Active ingredient: PAA [4, 14]: N; Visual observation category, Active ingredient: PAA ([4]; ratio active ingredient:PAA 10:1 (w/w)): N
O=C1c2ccccc2C(=O)N1SC(Cl)(Cl)Cl [folpet, N-(trichloromethylthio)phthalimide]	–	–	–	–	–	–	–	–	Interaction with the polycation PAA [4]: interacts over a large range of ratio's

Reference: patent US20230413808A1, “Bioactive complexes” (priority 2020, published 2023)
